Literature values, collected in paper PMC8198792, “Prediction of Anticancer Peptides with High Efficacy and Low Toxicity by Hybrid Model Based on 3D Structure of Peptides” (International Journal of Molecular Sciences, 2021).
Like-named read-outs stand apart in the source and are kept apart here.

Tests used:
cancer cell lines = test system: cancer cell lines; set-up: method as in 6 sources, ref CancerPPD [45] and SATPdb ||| ref CancerPPD/SATPdb ||| ref CancerPPD, SATPdb, Swissprot (PDB) ||| ref CancerPPD/SATPdb/Swissprot(PDB) ||| ref CancerPPD / SATPdb ||| ...; settings: 0 = non-ACP, cited from earlier work
Text: Supplement ijms-22-05630-s001.zip/ACPs(seguence).xlsx, sheet "D1" | column: Activity || Supplement ijms-22-05630-s001.zip/ACPs(seguence).xlsx, sheet "D2" | column: Activity || Supplement ijms-22-05630-s001.zip/ACPs(seguence).xlsx, sheet "D3" | column: Activity || (+ 2 further places)

erythrocytes = settings: cited from earlier work
Text: Supplement ijms-22-05630-s001.zip/Hemloytic Peptides(seguence).xlsx, sheet "HD1" | column: Activity || Supplement ijms-22-05630-s001.zip/Hemloytic Peptides(seguence).xlsx, sheet "HD2" | column: Activity || Supplement ijms-22-05630-s001.zip/Hemloytic Peptides(seguence).xlsx, sheet "HD3" | column: Activity

[1] = ACPs dataset D3 (supplement sheet "D3"), 1 = ACP, ref CancerPPD [45] and SATPdb
[2] = ACPs dataset D4 (sheet "D4"), label 1 = ACP, ref CancerPPD / SATPdb
[3] = ACPs dataset D5, sheet "D5", label 1 = ACP, ref CancerPPD [45] and SATPdb
[4] = Hemolytic peptides dataset HD2, label 1 = hemolytic, 0 = non-hemolytic, ref Hemolytik/SATPdb
[5] = hemolytic peptides dataset HD3, 1 = hemolytic (positive set), 0 = non-hemolytic (negative set), labels taken from databases, ref Hemolytik/SATPdb
[6] = natural hemolytic peptide dataset HD1, label collected from databases, ref Hemolytik [49], SATPdb [34]

Row | Substance | Activity (erythrocytes) | Activity (dataset HD1, hemolytic 1 / non-hemolytic 0) (erythrocytes) | other results
1 | ILAWKWAWWAWRR [satpdb11388] | 1 | – | Activity (cancer cell lines; [1]): 0; Activity (cancer cell lines; [2]): 0; Activity (cancer cell lines; [3]): 0
2 | LKKLLKWLKKL [satpdb13099] | 1 | – | Activity (cancer cell lines; ACPs dataset D3 (sheet "D3"), label 1 = ACP, ref CancerPPD/SATPdb): 0; Activity (cancer cell lines; [2]): 0; Activity (cancer cell lines; [3]): 0
3 | ILPWKWPWWPWRR [satpdb10356] | – | – | Activity (cancer cell lines; [1]): 0; Activity (cancer cell lines; [2]): 0; Activity (cancer cell lines; [3]): 0; Activity (erythrocytes; [4]): 1; Activity (erythrocytes; [5]): 1
4 | KKAFAAAAAFAAWAAFAKKKK [satpdb16931] | 0 | – | –
5 | KWKSFLKTFKSAKKKVLHTALKAISS [satpdb11775] | 1 | – | –
6 | KWKLFKKIPKFLHLAK [satpdb17849] | – | – | Activity (erythrocytes; [4]): 0; Activity (erythrocytes; [5]): 0
7 | WNPFKELERAGQRVRDAIISAAP [satpdb17819] | 0 | 0 | –
8 | KWKSFLKTFKSLKKTVLHTLLKAISS [satpdb11586] | 1 | – | –
9 | KWKKLLKKPLLKKLLKKL [satpdb12329] | 0 | – | –
10 | KKKKKKALFALWLAFAA [compound 1153] | 1 | – | –
11 | GRDYRTSLTIVQKLKKMVD [satpdb22468] | 0 | 0 | –
12 | LVRGCWTKSYPPKPCFVR [satpdb11737] | 1 | 1 | –
13 | AKKVSKRLEKLFSKIQNDK [satpdb19605] | 0 | 0 | –
14 | ENMFNIKSSVESDSFWG [satpdb15776] | 0 | 0 | –
15 | GWGSFFKKAAHVGKHVGKA [satpdb20663] | 0 | – | –
16 | KWKLKPLLKKLLKKL [satpdb10408] | 0 | – | –
17 | ILGKLLSTAAkLLSNL [satpdb12605] | – | – | Activity (erythrocytes; [4]): 1; Activity (erythrocytes; [5]): 1
18 | KKLLPIVANLLKSLL [satpdb19176] | 0 | 0 | –
19 | EMLKKKEVKMERKT [satpdb18957] | 0 | 0 | –
20 | KKKKKKALFALWLAFLA [compound 1155] | 1 | – | –
21 | FDWDSVLKGVEGFVRGYF [satpdb25715] | 0 | 0 | –

Row | Substance | Activity (erythrocytes) | Activity (dataset HD1, hemolytic 1 / non-hemolytic 0) (erythrocytes) | other results
22 | LKLFKKILKYL [satpdb12465] | 1 | – | –
23 | GFLGPLLKLGLKGVAKVIPHLIPSRQQ [satpdb16038] | 1 | 1 | –
24 | KWKWKW [satpdb24601] | 0 | – | –
25 | CGESCVFIPCVTALLGCSCKSKVCYKNSIP [satpdb12547] | – | – | Activity (erythrocytes; [5]): 1; Activity (dataset HD1, hemolytic 1 / non-hemolytic 0) (erythrocytes; [6]): 1
26 | KKKKKKALFAAWAAFLA [compound 1151] | 1 | – | –
27 | KKKKKKAAFALWAAFAA [compound 1147] | 1 | – | –
28 | FLPLLLAGLPKLLCLFFKKC [satpdb14955] | 1 | 1 | –
29 | AKKVFKRLEKSFSKIQNDK [satpdb11458] | 0 | 0 | –
30 | RRGWALRLVLAY [satpdb14852] | 1 | 1 | –
31 | GLLSGTSVRGSI [satpdb16160] | 1 | 1 | –
32 | KWKSFLkTFKSLKKTVLHTLLKAISS [satpdb10544] | 1 | – | –
33 | FLSLIPHAINAVSAIAKHF [satpdb17651] | 0 | – | –
34 | ILPLKLPWLPLRR [satpdb11800] | 0 | – | –
35 | ALWKTLLKKVLKA [satpdb11740] | 1 | – | –
36 | TGRAKRRMQYNRR [satpdb25092] | 0 | 0 | –
37 | QLQGKQVSGEVVQKVLQELIQSVAKP [satpdb28356] | 0 | 0 | –
38 | RGLRRLGRKIAHGVKKYGPTVKRIKRKA [satpdb15155] | 0 | – | –
39 | LKLFKKILKFL [satpdb12214] | 1 | – | –
40 | KSLVRRWRSRW [satpdb18185] | 0 | – | –
41 | DVNDLKNLCAKTHNLLPMCAMFGKK [satpdb20310] | 0 | 0 | –
42 | QADFQKVVAGVANALAHRYH [satpdb25830] | 0 | 0 | –

Row | Substance | Activity (erythrocytes) | Activity (dataset HD1, hemolytic 1 / non-hemolytic 0) (erythrocytes) | other results
43 | GRRRRSVQWCA [satpdb24172] | 0 | 0 | –
44 | RRRAAFAAWAAFAARRR [satpdb23563] | 0 | – | –
45 | FLSLIPHAINAVSAIAKHN [satpdb11891] | 1 | – | –
46 | KWKLFKKIPHLAKKF [satpdb28955] | 0 | – | –
47 | GWRKWIKKATHVGKHIGKAALDAYI [satpdb10530] | 1 | – | –
48 | PKLLKFLSKWIG [satpdb11566] | 1 | 1 | –
49 | KWKLFKKIPKFLHLAKKF [compound 2405] | – | – | Activity (erythrocytes; [4]): 0; Activity (erythrocytes; [5]): 0
50 | GLWSKIKTAGKSVAKAAAKAAVKAVTNAV [satpdb14676] | 1 | 1 | –
51 | VIPFVASVAAEMMHHVYCAASKRC [satpdb16460] | 1 | 1 | –
52 | SFPFFPPGICKRLKRC [satpdb23345] | 0 | 0 | –
53 | GIHDILKYGKPS [satpdb19051] | 0 | 0 | –
54 | GWGSFFKKAAAVGKAVGKAALTAYL [satpdb15739] | 1 | 1 | –
55 | KKKKKKAAFAAWAAFAA [satpdb19804] | 0 | – | –
56 | IKIPPIVKDTLKKVAKGVLSTIAGALST [satpdb27001] | 0 | 0 | –
57 | KKLFKKILkYL [satpdb24648] | 0 | – | –
58 | FKCRRWQWRWKKLGAKPVPIIYCNRRTGKCQRM [satpdb24174] | 0 | 0 | –
59 | HALWMTLLKKVLKAAAKAALNAVLVGANA [satpdb12263] | 1 | 1 | –
60 | KLLKKPLKLKL [satpdb17171] | 0 | – | –
61 | KKVVFKVKFK [satpdb13312] | 0 | – | –
62 | KWKKLLKKPLKLKL [satpdb22005] | 0 | – | –
63 | FIFPKKNIINSLFGR [satpdb24412] | – | – | Activity (erythrocytes; [5]): 0; Activity (dataset HD1, hemolytic 1 / non-hemolytic 0) (erythrocytes; [6]): 0

Row | Substance | Activity (erythrocytes) | Activity (dataset HD1, hemolytic 1 / non-hemolytic 0) (erythrocytes) | other results
64 | GTPCGESCVYIPCISGVIGCSCTDKVCYLN [satpdb10399] | – | – | Activity (erythrocytes; [5]): 1; Activity (dataset HD1, hemolytic 1 / non-hemolytic 0) (erythrocytes; [6]): 1
65 | GVPCGESCVFIPCITGVIGCSCSSNVCYLN [satpdb12922] | – | – | Activity (erythrocytes; [5]): 1; Activity (dataset HD1, hemolytic 1 / non-hemolytic 0) (erythrocytes; [6]): 1
66 | HVDKKVADKVLLLKQLRIMRLLTRL [satpdb19920] | 0 | 0 | –
67 | GFWKKVGSAAWGGVKAAAKGAAVGGLNALAKHIQ [satpdb28387] | 0 | 0 | –
68 | VGKTWIKVIRGIGKSKIKWQ [satpdb28870] | 0 | 0 | –
69 | KKKKKKAAFALWLAFLA [compound 1154] | 1 | – | –
70 | kWkSFLkTFkSLKkTVLHTLLkAISS [satpdb10734] | – | – | Activity (erythrocytes; [4]): 1; Activity (erythrocytes; [5]): 1
71 | GFKLKGKAKISCLPNGQWSNFPPKCIRECAMVSS [satpdb25464] | 0 | 0 | –
72 | FSPQMLQDIIEAATAIL [satpdb19301] | – | – | Activity (erythrocytes; [5]): 0; Activity (dataset HD1, hemolytic 1 / non-hemolytic 0) (erythrocytes; [6]): 0
73 | GLWSTIKNVGKEAAIAAGKAALGAL [satpdb11818] | 0 | – | –
74 | GFMDTAKNVAKNVAVTLLDNLKCKITKAC [satpdb14159] | 1 | 1 | –
75 | KLLLKLLLK [compound 3826] | 1 | – | –
76 | GIIKKI [satpdb22209] | – | – | Activity (erythrocytes; [4]): 0; Activity (erythrocytes; [5]): 0
77 | GWKKWLRKGAKHLGQAAIK [satpdb12620] | 1 | – | –
78 | KKKKKKAAWAAWAAWAA [satpdb17717] | 0 | – | –
79 | KNLRRITRKIIHIIKKYG [satpdb15247] | 1 | 1 | –
80 | GWGSIFKHGRHAAKHIGHAAVNHYL [satpdb11681] | 1 | – | –
81 | CKLLKTFLSKWIC [compound 3456] | 1 | – | –
82 | KLLLK [compound 3825] | – | – | Activity (erythrocytes; [4]): 1; Activity (erythrocytes; [5]): 1
83 | EWGRRCCGWGPGRRYCRRWC [satpdb13121] | – | – | Activity (erythrocytes; [5]): 0; Activity (dataset HD1, hemolytic 1 / non-hemolytic 0) (erythrocytes; [6]): 0
84 | KWKLFKKIPLAKKF [satpdb27289] | 0 | – | –
